In US5442064A, “Carboxylic acid derivatives, pharmaceutical compositions containing these compounds and processes for preparing them” (Dr. Karl Thomae GmbH, priority 1992, dated 1995):
Where a name gives a salt, the structure may show the parent alone.

What was measured:
[1] = biological target: human thrombocytes; assay: Competitive binding of ^3 H-BIBU 52/test substance to human thrombocytes; details: human thrombocytes in plasma; ^3 H-BIBU 52 5 nM; ambient temperature, 20 minutes
Experimental: 1. Competitive binding of ^3 H-BIBU 52/test substance to human thrombocytes: […] Case 5/1093-FL), which replaces the ^125 I fibrinogen ligand known from the literature and various concentrations of the substance to be tested. The free and bound ligand is separated by centrifuging and quantified by scintillation counting. The inhibition of ^3 H-BIBU 52 binding by the test substance is determined from the measurements obtained. In order to do this, donor blood is taken from an anticubital vein and anticoagulated with trisodium citrate (final concentration 13 mM). The blood is centrifuged for 10 minutes at 170×g and the supernatant platelet-rich plasma (PRP) is removed. The remaining blood is vigorously centrifuged once more in order to obtain plasma. The PRP is diluted 1:10 with autologous plasma. 750 μl are incubated with 50 μl of physiological saline solution, 100 μl of test substance solution, 50 μl of ^14 C-sucrose (3,700 Bq) and 50 μl of ^3 H-BIBU 52 (final concentration: 5 nM) at ambient temperature for 20 minutes. In order to measure the non-specific binding, 5μl of BIBU 52 (final concentration: 30 μM) are used instead of the test substance. The samples are centrifuged for 20 seconds at 10,000×g and the supernatant is poured off. 100 μl thereof are measured in order to determine the free ligand. The pellet is dissolved in 500 μl of 0.2N NaOH, 450 μl are mixed with 2 ml of scintillator and 25 μl of 5N HCl and measured. The residual plasma remaining in the pellet is determined from the ^14 C-content and the bound ligand is determined from the ^3 H-measurement. After the non-specific binding has been deducted, the pellet activity is plotted against the concentration of the test substance and the concentration for 50% inhibition of binding is determined. 2. Antithrombotic activity

[2] = system: mice; assay: Tolerability after intravenous administration to mice; type: in vivo; details: 30 mg/kg, three mice in each case
[3] = system: platelet aggregation; assay: Inhibition of platelet aggregation (collagen-induced, Born and Cross, platelet-rich plasma of healthy volunteers); type: cell-based; details: Homo sapiens, Platelet, 10 minutes preincubation at 37° C
Experimental: In order to do this, donor blood is taken from an anticubital vein and anticoagulated with trisodium citrate (final concentration 13 mM). The blood is centrifuged for 10 minutes at 170×g and the supernatant platelet-rich plasma (PRP) is removed. The remaining blood is vigorously centrifuged once more in order to obtain plasma. The PRP is diluted 1:10 with autologous plasma. 750 μl are incubated with 50 μl of physiological saline solution, 100 μl of test substance solution, 50 μl of ^14 C-sucrose (3,700 Bq) and 50 μl of ^3 H-BIBU 52 (final concentration: 5 nM) at ambient temperature for 20 minutes. In order to measure the non-specific binding, 5μl of BIBU 52 (final concentration: 30 μM) are used instead of the test substance. The samples are centrifuged for 20 seconds at 10,000×g and the supernatant is poured off. 100 μl thereof are measured in order to determine the free ligand. The pellet is dissolved in 500 μl of 0.2N NaOH, 450 μl are mixed with 2 ml of scintillator and 25 μl of 5N HCl and measured. The residual plasma remaining in the pellet is determined from the ^14 C-content and the bound ligand is determined from the ^3 H-measurement. After the non-specific binding has been deducted, the pellet activity is plotted against the concentration of the test substance and the concentration for 50% inhibition of binding is determined. 2. Antithrombotic activity The thrombocyte aggregation is measured using the method of Born and Cross (J. Physiol. 170: 397 (1964)) in platelet-rich plasma taken from healthy volunteers. To inhibit coagulation the blood is mixed with 3.14% sodium citrate in a volume ratio of 1:10. The pattern of the decrease in optical density of the platelet suspension is photometrically measured and recorded after the addition of the aggregation-triggering substance. The rate of aggregation is determined from the angle of inclination of the density curve. The point on the curve where there is maximum light transmittance is used to calculate the optical density. The concentration of collagen used is as small as possible but sufficient to produce an irreversible reaction curve. Standard commercial collagen produced by Hormonchemie of Munich is used. Before the addition of the collagen the plasma is incubated for 10 minutes with the substance at 37° C. From the concentration/activity curve an EC50 is determined, which describes the concentration giving a 50% change in the optical density in terms of the inhibition of aggregation.

[4] = system: collagen-induced thrombocyte aggregation; assay: Collagen-induced thrombocyte aggregation ex vivo after oral administration, Rhesus monkeys; type: in vivo; details: 1 mg/kg, collagen 2 μg/ml
Experimental: The inhibition of thrombocyte aggregation after oral administration of the test substance is determined ex vivo on Rhesus monkeys. Directly before the oral administration of the test substance suspended in Natrosol, a blood sample is taken from the cubital vein of the animals to provide a reference value. At specified times after the administration of the substance, fresh blood samples are taken and investigated as follows. The whole blood mixed with 3.14% sodium citrate in a ratio by volume of 1:10 is centrifuged at 200×g for 15 minutes. The supernatant, platelet-rich plasma, is carefully removed. From the sediment which is rich in erythrocytes, the platelet-poor plasma is obtained as supernatant,by centrifuging at 4000×g for 10 minutes. The thrombocyte aggregation triggered with collagen (Hormonchemie, Munich; 2 μg/ml final concentration in platelet-rich plasma) in these ex vivo samples is measured photometrically using the method of Born and Cross (J. Physiol. 170, 397 (1964)). The maximum light transmittance of the platelet-rich plasma, measured after collagen stimulation, is compared with the reference value in order to determine the inhibition of aggregation at the various times of blood sampling after the administration of the substance, relative to the reference value.

Row | Compound | IC50 [1] [nM] | tolerability (animals died) [2] | EC50 [3] [nM] | inhibits the collagen-induced thrombocyte aggregation ex vivo (duration) [4]
1 | Cl.Cl.N=C(N)c1ccc(N2CCN(C(=O)N[C@H]3CC[C@H](C(=O)O)CC3)CC2)nc1 [2(7), 1-(5-amidinopyrid-2-yl)-4-[N-(trans-4-carboxycyclohexyl)-aminocarbonyl]-piperazine-dihydrochloride] | 29 | no animals died | 80 | 
2 | CN(C(=O)N1CCN(c2ccc(C(=N)N)cn2)CC1)[C@H]1CC[C@H](C(=O)O)CC1.Cl.Cl [2(8), 1-(5-amidinopyrid-2-yl)-4-[N-(trans-4-carboxycyclohexyl)-N-methyl-aminocarbonyl]-piperazine-dihydrochloride] | 27 | no animals died | 60 | 
3 | COC(=O)[C@H]1CC[C@H](NC(=O)C2CCN(c3ccc(C(=N)N)cc3)CC2)CC1.Cl [Example 1(24), 1-(4-amidinophenyl)-4-[N-[trans-4-(methoxycarbonyl)-cyclohexyl]-aminocarbonyl]-piperidine-hydrochloride] | 4400 |  | 220 | more than 4 hours
4 | Cl.Cl.N=C(N)c1ccc(N2CCN(C(=O)N[C@H]3CC[C@H](C(=O)O)CC3)CC2)cc1.O [Example 2, 1-(4-Amidinophenyl)-4-[N-[trans-4-carboxycyclohexyl]aminocarbonyl]-piperazine-dihydrochloride-hydrate] | 7.4 | no animals died | 40 | 
5 | NCc1ccc(N2CCN(C(=O)N[C@H]3CC[C@H](C(=O)O)CC3)CC2)cc1 [Example 3, 1-(4-Aminomethylphenyl)-4-[N-(trans-4-carboxycyclohexyl)-aminocarbonyl]-piperazine] | 130 | no animals died | 230 | 
6 | COC(=O)N=C(N)c1ccc(N2CCN(C(=O)N[C@H]3CC[C@H](C(=O)OC)CC3)CC2)cc1 [Example 5, 1-[4-(N-Methoxycarbonyl-amidinc)-phenyl]-4-[N-[trans-4-(methoxycarbonyl)-cyclohexyl]-aminocarbonyl]-piperazine] |  | no animals died |  | 
7 | CCOC(=O)[C@H]1CC[C@H](NC(=O)N2CCN(c3ccc(C(=N)N)cc3)CC2)CC1 [Example 8, 1-(4-Amidinophenyl)-4-[N-[trans-4-(ethoxycarbonyl)-cyclohexyl]-aminocarbonyl]-piperazine-dihydrochloride] | 540 |  | 190 | 
